Reference: patent publication US20240285808A1, “MOLECULAR PROBES FOR IN VIVO DETECTION OF ALDEHYDES” (The General Hospital Corporation, priority 2021, published 2024)
Where “and” joins values, the source holds several entries; their conditions need not be identical. Equal entries are not always repeated. Entries after “also recorded” stand apart in the source; their conditions may differ.

How the values were obtained:
[1] = tested on: bleomycin-injured mice (pulmonary fibrosis); assay: EGCG treatment of bleomycin-injured mice monitored with Gd-9 MRI; assay type: in vivo, mouse
Description: Gd-9 is a Gd-DOTA derivative with two hydrazine arms synthesized by amide coupling of two tBu-piperazin-1-ylcarbamate groups to 1,4,7,10-tetraazacyclododecane-1,4-bis(tBu-acetate)-4,10-bis(glutaric acid 1-tBu ester), followed by acid deprotection and gadolinium complexation. C57Bl/6 adult male mice at 8 weeks of age received a single intratracheal dose of bleomycin, 1 U/kg body weight (50 μL total volume) as previously described. Pair-wise imaging study of GdCHyd and Gd-9 was carried out in mice at day 14 post bleomycin injury on a 4.7 T MRI with a dose of 100 μmol/kg of each probe. For the treatment study, mice were imaged first at day 10 post bleomycin injury, then treated daily with oral gavage of either epigallocatechin gallate (EGCG, 100 mg/kg) or PBS (vehicle) for 11 days. At day 21 post bleomycin injury, the animals were imaged again. MRI consisted of T1-weighted UTE (TR/TE/flip angle=4 ms/0.011 ms/15°) images acquired prior to and up to 30 minutes following intravenous administration of Gd-9 ([…]). Following the second imaging session, animals were euthanized (60 minutes post injection), and lung tissues were removed for further analysis.
The dual hydrazine probe Gd-9 was first compared to GdCHyd in a head-to head comparison in vivo. Mice were imaged 14 days after bleomycin injury first with Gd-CHyd and then 4 h later with Gd-9. […] Gd-9 was nexted used to monitor response to EGCG treatment in bleomycin-injured mice. Mice were imaged at 10 days after bleomycin injury and then the mice were treated with EGCG (100 mg/kg) or PBS (vehicle) for 11 days, and then the mice were imaged again (FIG. 14).

[2] = Reaction rates with 2-formylpyridine measured by HPLC-ICP-MS (Method A); assay type: physicochemical; settings: Method a: 2-formylpyridine 1000 μM, probe 25 μM, pH 7.40 PBS
Description: Quantitative Measurement of Reaction Rates with Aldehydes: Method A: Reaction Rates of Compounds with 2-Formylpyridine Measured by HPLC-ICP-MS
Reactivity of aldehyde-binding probes were assessed in pH 7.40 phosphate-buffered saline under pseudo-first order conditions with 2-formylpyridine concentration of 1000 μM and probes at 25 μM. Concentrations of unreacted starting material and condensation products were determined at 12 min time intervals based on their relative integrations. The values were fit to a standard first order rate constant linear equation and the rate constant was extracted from the slope.

[3] = Relaxivity measurements in PBS; assay type: physicochemical; settings: 1.4 T, 37° C.
Description: (§1) BSA-ALD (10 mg/mL) or BSA (10 mg/mL) were treated for 24 hours at 37° C. with the corresponding Gd or Mn complex at a range of concentrations (0.01-0.2 mM), with a total volume of 300 μL maintained for all samples. After 24 hours, an aliquot of the solution (50 μL) was used for longitudinal (T1) relaxation measurements, recorded using a Bruker mq60 Minispec at 1.41 T and 37° C. Longitudinal (T1) relaxation times were measured via an inversion recovery experiment using 10 inversions of duration ranging between 0.05×T1 and 10×T1. Solutions (concentration range: 0.1 mM-1.0 mM) in PBS were run in parallel. To measure the relaxivity of BSA-bound species, sodium cyanoborohydride (10 mg) was added to the solution to irreversibly bind the probe to the protein. After a further 2h incubation at 37° C., protein-bound and protein-free solutions were separated by ultrafiltration. Then 200 μL PBS was added to the residue to dissolve the protein. Longitudinal (T1) relaxation times for the bounded species were measured using a Bruker mq60 Minispec at 1.41 T and 37° C. After the measurement, concentration of corresponding metal ion (Gd/Mn) in the residue and filter were both determined using an Agilent 8800 ICP-MS system. Relaxivity (r1) was determined from the slope of a plot of 1/T1 vs metal concentration for 5 concentrations.

[4] = molecular target: bovine serum albumin (BSA) (Bos taurus, UniProt P02769); assay: Relaxivity measurements with BSA; assay type: binding; settings: 1.4 T, 37° C., BSA 10 mg/mL
Chain of bovine serum albumin (BSA) (P02769 25-607): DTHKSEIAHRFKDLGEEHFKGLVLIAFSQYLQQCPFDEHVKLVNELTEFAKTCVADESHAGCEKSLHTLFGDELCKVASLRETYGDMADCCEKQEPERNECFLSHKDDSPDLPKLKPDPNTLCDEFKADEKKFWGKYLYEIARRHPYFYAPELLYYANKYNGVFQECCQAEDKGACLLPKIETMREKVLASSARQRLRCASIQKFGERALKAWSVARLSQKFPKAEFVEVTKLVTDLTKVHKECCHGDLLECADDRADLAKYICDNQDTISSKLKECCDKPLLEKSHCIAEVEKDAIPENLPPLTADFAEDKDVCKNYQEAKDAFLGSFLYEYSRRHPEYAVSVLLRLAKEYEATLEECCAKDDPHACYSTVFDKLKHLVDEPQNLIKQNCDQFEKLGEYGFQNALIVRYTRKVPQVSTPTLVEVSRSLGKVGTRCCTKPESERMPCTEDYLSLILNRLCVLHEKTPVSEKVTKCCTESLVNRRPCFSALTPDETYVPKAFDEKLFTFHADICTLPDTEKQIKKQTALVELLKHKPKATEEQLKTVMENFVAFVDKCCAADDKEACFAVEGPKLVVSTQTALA
Description: as §1

[5] = molecular target: T1, BSA-ALD (oxidized bovine serum albumin containing allysine aldehyde groups) (Bos taurus, UniProt P02769); assay: Relaxivity measurements with BSA-Ald; assay type: binding; settings: 37° C.; for r1, +BSA-Ald / r1, Bound to BSA-Ald: 1.4 T; for r1, +BSA-Ald: BSA-Ald 10 mg/mL; for r1, Bound to BSA-Ald: protein-bound species after NaBH3CN and ultrafiltration
T1 construct: made in house; host or cells: no expression host: BSA oxidised chemically with sodium ascorbate, ferric chloride and H2O2, then desalted on PD-10
T1 sequence (P02769 25-607): as above
Description: Preparation of Allysine Containing Bovine Serum Albumin, BSA-ALD:
To a solution of bovine serum albumin (BSA) (100 mg) dissolved in phosphate buffered saline (4 mL, pH 7.4, 0.25 mM), sodium ascorbate (20 mg), ferric chloride (120 μL, 10 mM) and 20 μL H2O2 (30% w) were added. The reaction was stirred at 37° C. for 24 hours, and sodium ascorbate (20 mg) was added repeatedly every 8 hours. After the reaction, protein was purified using PD-10 Sephadex G25 desalting columns (GE Healthcare), eluted with PBS. Protein concentration was assessed using the ‘BCA Protein Assay Kit’ (Thermo Scientific). Protein carbonyl concentration was determined by ‘Protein Carbonyl Content Assay Kit’ (Sigmal-Aldrich).
(§2) Alternatively, preparation of BSA^Ald and binding of Gd^3+ probe to protein was carried out according to modified procedures. To a solution of bovine serum albumin (BSA) (100 mg) dissolved in phosphate buffered saline (4 mL, pH 7.4, 0.25 mM) was added sodium ascorbate (20 mg), ferric chloride (120 μL, 10 mM) and 20 μL H2O2 (30% w). The reaction was stirred at 37° C. for 24 h, and sodium ascorbate (20 mg) was added repeatedly every 8 h. After 24 h, the protein was purified using PD-10 Sephadex G25 desalting columns (GE Healthcare), eluted with PBS. Protein concentration was assessed using the ‘Micro BCA Protein Assay Kit’ (Thermo Scientific, 23235). Protein carbonyl concentration was determined by ‘Protein Carbonyl Content Assay Kit’ (Sigma-Aldrich, MAK094-1KT). […] The protein solutions were kept at a concentration of 20 mg/mL for further use.
as §1

BSA-ALD = molecular target: T2, BSA-ALD (Bos taurus, UniProt P02769); assay: Binding yield measurements of Gd^3+ complex with BSA^Ald (ultrafiltration, ICP-MS); design: species or system bovine; settings: pH 7.4, PBS, 37° C., 12 h, ultrafiltration 5,000 Da cut-off
T2 construct: made in house; host or cells: no expression host: BSA oxidised chemically with sodium ascorbate, ferric chloride and H2O2, then desalted on PD-10
T2 sequence (P02769 25-607): as above
Description: FIG. 48. […] Binding concentration of the probes to BSA^Ald (pH 7.4, PBS, 37° C., 12 h) as determined by ICP-MS following an ultrafiltration (5,000 Da cut-off) to separate the protein-bound probe from the unbound probe. Slope gives the binding yield.
as §2

[6] = tested on: ECM proteins from fibrotic rat liver; assay: Relaxivity measurements in ECM; assay type: binding
Description: Liver fibrosis was induced in male Sprague Dawley rats by ligation of the common bile duct (CD®, Charles River Labs, Wilmington, MA). Ten days after common bile duct ligation, the fibrotic liver was harvested and sequential extractions were performed using the CNMCS (Cytosol/Nucleus/Membrane/Cytoskeleton) Compartmental Protein Extraction kit (Cytomol, Union City, CA) according to manufacturer's instructions. In brief, frozen tissues (150-200 mg) were homogenized and with solvents provided in the kit to sequentially to remove: cytosolic proteins, nuclear proteins, membrane proteins, and cytoskeletal proteins, leaving a final insoluble fraction enriched for ECM proteins.
Relaxivity Measurements in ECM
The enriched ECM proteins from 800 mg of fibrotic rat liver were suspended in 1 ml PBS. The ECM protein concentration was about 10% (5 mg in a 50 μL aliquot determined by weight after lyophilization). An aliquot of the solution (50 μL) was treated for 2 h at 37° C. with the corresponding molecular probe at a range of concentrations (0.01-0.1 mM) and then longitudinal (T1) relaxation measurements was recorded using a Bruker mq60 Minispec at 1.41 T and 37° C. For the blocking experiment with N2H4, a 100 fold-excess of N2H4 referred to the concentration of molecular probe was added to the solution before the incubation. Longitudinal (T1) relaxation times were measured via an inversion recovery experiment using 10 inversions of duration ranging between 0.05×T1 and 10×T1. Relaxivity (r1) was determined from the slope of a plot of 1/T1 vs metal concentration for 4 concentrations.

[7] = Reaction rates with butyraldehyde measured by HPLC-ICP-MS (Method B); assay type: physicochemical; settings: Method b: butyraldehyde 100 μM, probe 25 μM, pH 7.40
Description: Method B: Reaction Rates of Compounds with Butyraldehyde Measured by HPLC-ICP-MS
The reactions were conducted in pH 7.40 phosphate-buffered with butyraldehyde concentration of 100 μM and hydrazine probes at 25 μM. Concentrations of unreacted starting material and condensation products were determined at 10 min time intervals over 2 hours based on their relative integrations. The values were fit to a standard first order rate constant linear equation and the rate constant was extracted from the slope.
Reaction with Butyraldehyde Monitored by HPLC-ICP-MS
Reactions were conducted in pH 7.4 phosphate-buffered saline with butyraldehyde concentration of 100 μM and hydrazine probes at 25 μM. Concentrations of unreacted starting material and condensation products were determined based on their relative integrations at 12 min time intervals over 2 hours.

[8] = Biodistribution of manganese in healthy mice 60 minutes post-injection; assay type: in vivo, mouse; settings: 0.1 mmol/kg i.v.
From the text: To meet these requirements, the probes Mn-12, Mn-13 and Mn-14 were designed based on the stable Mn-1,4-DO2A chelate. […] This combination of stability, turn-on relaxivity, and low uptake in healthy liver indicate that Mn-12 is quite promising as a novel probe for liver fibrogenesis detection.

[9] = EGCG 100 mg/kg oral gavage daily for 11 days vs vehicle

Row | SMILES | k (second order rate constant) [2] | r1, PBS [3] | r1, +BSA [4] | r1, +BSA-Ald [5] | r1, Bound to BSA-Ald [5] | other results
1 | O=C(O[C@@H]1Cc2c(O)cc(O)cc2O[C@@H]1c1cc(O)c(O)c(O)c1)c1cc(O)c(O)c(O)c1 [EGCG, epigallocatechin gallate] | – | – | – | – | – | lung to muscle ΔCNR after Gd-9 injection, day 21 vs day 10 ([1]; EGCG 100 mg/kg oral gavage daily for 11 days): significantly decreased; lung allysine content [1, 9]: significantly reduced; lung hydroxyproline (total collagen) [1, 9]: reduced
2 | NN1CCN(C(=O)CCOCCOCCOCCOCCNC(=O)CN2CCN(CC(=O)[O-])CCN(CC(=O)[O-])CC2)CC1.[Ga+3] [Ga-1] | 0.06 M⁻¹ s⁻¹ | – | – | – | – | –
3 | NC(Cn1cccc1)C(=O)NCCOCCOCCOCCNC(=O)CN1CCN(CC(=O)[O-])CCN(CC(=O)[O-])CC1.[Ga+3] (stereo not shown) [Ga-2] | 0.11 M⁻¹ s⁻¹ | – | – | – | – | –
4 | O=C([O-])CN1CCN(CC(=O)[O-])CCN(CC(=O)NCCOCCOCCOCCNC(=O)CN2C(=O)CSC2=S)CC1.[Ga+3] [Ga-4] | 0.34 M⁻¹ s⁻¹ | – | – | – | – | –
5 | NN1CCN(C(=O)CCC(C(=O)[O-])N2CCN(CC(=O)[O-])CCN(CC(=O)[O-])CCN(C(CCC(=O)N3CCNCC3)C(=O)[O-])CC2)CC1.[Gd+3] (stereo not shown) [Gd-11] | – | 6.2 mM⁻¹ s⁻¹ | 6.2 mM⁻¹ s⁻¹ | 7.6 mM⁻¹ s⁻¹ | 13.7 mM⁻¹ s⁻¹ and 13.8 mM⁻¹ s⁻¹ | increase of r1 in BSA^Ald compared to PBS value ([5]; 1.41 T): 23%; equilibrium binding to BSA^Ald (binding yield) (BSA-ALD): 19.2%; relaxivity in ECM ([6]; PBS, pH 7.4, 2 h, 37° C., 1.41T): 6.7 mM⁻¹ s⁻¹; relaxivity in ECM with 100-fold excess of hydrazine ([6]; aldehydes blocked with N2H4): 6.1 mM⁻¹ s⁻¹
6 | CCCCN1CCN(CCCC(=O)N2CCN(N)CC2)CCN(CC(=O)[O-])CCN(CC(=O)[O-])CC1.[Mn+2] [Mn-13] | – | 1.6 mM⁻¹ s⁻¹ | 1.9 mM⁻¹ s⁻¹ | 2.3 mM⁻¹ s⁻¹ | 6.2 mM⁻¹ s⁻¹ | k (second order rate constant) [7]: 1.9 M⁻¹ s⁻¹; Mn liver levels in healthy mice [8]: high Mn liver levels; also recorded: elevated levels
7 | NNC(=O)CCCN1CCN(CCCC(=O)NN)CCN(CC(=O)[O-])CCN(CC(=O)[O-])CC1.[Mn+2] [Mn-14] | – | 1.5 mM⁻¹ s⁻¹ | 1.8 mM⁻¹ s⁻¹ | 2.5 mM⁻¹ s⁻¹ | 7.3 mM⁻¹ s⁻¹ | k (second order rate constant) [7]: 1.4 M⁻¹ s⁻¹
